Measurements from ChEMBL document CHEMBL1147166, “Structure-activity relationships of methoctramine-related polyamines as muscarinic antagonist: effect of replacing the inner polymethylene chain with cyclic moieties” (Bioorg Med Chem, 2007).
The source made the active and inactive calls. No cut-off for these calls is given here.

Columns and labels:
[1] = tested on: Mus musculus; assay: Antinociceptive activity in mouse assessed as licking latency at 0.01 ug, icv after 60 mins by hot plate method; format: functional
[2] = tested on: Mus musculus; assay: Antinociceptive activity in mouse assessed as licking latency at 10 ug, icv after 30 mins by hot plate method; format: functional
[3] = tested on: Mus musculus; assay: Antinociceptive activity in mouse assessed as licking latency at 0.03 ug, icv after 15 mins by hot plate method; format: functional
[4] = tested on: Mus musculus; assay: Antinociceptive activity in mouse assessed as licking latency at 1.0 ug, icv after 15 mins by hot plate method; format: functional
[5] = tested on: Mus musculus; assay: Antinociceptive activity in mouse assessed as licking latency at 0.3 ug, icv after 30 mins by hot plate method; format: functional
[6] = biological target: Cholinesterase (Homo sapiens, UniProt P06276); assay: Inhibition of human serum recombinant BChE after 20 mins
[7] = biological target: T1, Muscarinic acetylcholine receptor M1 (Homo sapiens, UniProt P11229); assay: Displacement of [3H] N-methyl-scopolamine chloride from human muscarinic receptor M1 expressed in CHO cells; format: cell-based
T1 sequence (P11229 whole entry): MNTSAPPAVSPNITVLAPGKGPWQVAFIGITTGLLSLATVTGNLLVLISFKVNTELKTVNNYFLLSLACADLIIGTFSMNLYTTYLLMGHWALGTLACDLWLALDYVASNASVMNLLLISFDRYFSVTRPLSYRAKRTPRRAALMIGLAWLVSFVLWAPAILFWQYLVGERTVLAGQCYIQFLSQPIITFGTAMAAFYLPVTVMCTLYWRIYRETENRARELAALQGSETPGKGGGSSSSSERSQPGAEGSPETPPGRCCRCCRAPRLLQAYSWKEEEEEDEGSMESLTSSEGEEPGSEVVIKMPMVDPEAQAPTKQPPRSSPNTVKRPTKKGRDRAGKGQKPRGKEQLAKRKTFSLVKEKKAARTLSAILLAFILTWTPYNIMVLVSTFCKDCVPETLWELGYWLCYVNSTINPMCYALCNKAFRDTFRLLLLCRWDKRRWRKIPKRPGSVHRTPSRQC

[8] = tested on: Mus musculus; assay: Antinociceptive activity in mouse assessed as licking latency at 0.3 ug, icv after 60 mins by hot plate method; format: functional
[9] = biological target: T2, Muscarinic acetylcholine receptor M2 (Homo sapiens) (UniProt P08172); assay: Antagonist potency at muscarinic receptor M2 in guinea pig atrium; format: functional, tissue-based; conditions: Cavia porcellus; Cardiac atrium; target entry is the homologue from another species
T2 sequence (whole entry): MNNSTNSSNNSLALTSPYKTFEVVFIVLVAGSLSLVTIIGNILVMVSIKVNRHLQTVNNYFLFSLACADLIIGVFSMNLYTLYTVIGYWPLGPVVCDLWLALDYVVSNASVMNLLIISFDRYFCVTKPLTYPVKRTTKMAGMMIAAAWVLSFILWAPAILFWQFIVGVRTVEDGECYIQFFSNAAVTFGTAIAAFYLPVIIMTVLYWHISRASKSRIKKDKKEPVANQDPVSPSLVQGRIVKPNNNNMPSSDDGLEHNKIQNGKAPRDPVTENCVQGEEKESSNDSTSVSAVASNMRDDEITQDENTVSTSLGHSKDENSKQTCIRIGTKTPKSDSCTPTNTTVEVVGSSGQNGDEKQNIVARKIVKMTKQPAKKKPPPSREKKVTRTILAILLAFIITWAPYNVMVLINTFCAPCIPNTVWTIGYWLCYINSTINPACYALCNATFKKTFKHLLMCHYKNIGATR

[10] = tested on: Mus musculus; assay: Antinociceptive activity in mouse assessed as licking latency at 0.1 ug, icv after 60 mins by hot plate method; format: functional
[11] = tested on: Mus musculus; assay: Antinociceptive activity in mouse assessed as licking latency at 0.01 ug, icv after 45 mins by hot plate method; format: functional
[12] = tested on: Mus musculus; assay: Antinociceptive activity in mouse assessed as licking latency at 10 ug, icv after 60 mins by hot plate method; format: functional
[13] = tested on: Mus musculus; assay: Antinociceptive activity in mouse assessed as licking latency at 0.1 ug, icv after 45 mins by hot plate method; format: functional
[14] = biological target: Acetylcholinesterase (Homo sapiens, UniProt P22303); assay: Inhibition of human erythrocyte recombinant AchE after 20 mins
[15] = tested on: Mus musculus; assay: Antinociceptive activity in mouse assessed as licking latency at 0.03 ug, icv after 45 mins by hot plate method; format: functional
[16] = tested on: Mus musculus; assay: Antinociceptive activity in mouse assessed as licking latency at 0.03 ug, icv after 30 mins by hot plate method; format: functional
[17] = organism: Rattus norvegicus; assay: Increase in Ach release in rat parietal cortex by cerebral microdialysis test; format: functional
[18] = tested on: Mus musculus; assay: Antinociceptive activity in mouse assessed as licking latency at 10 ug, icv after 15 mins by hot plate method; format: functional
[19] = tested on: Mus musculus; assay: Antinociceptive activity in mouse assessed as licking latency at 0.1 ug, icv after 15 mins by hot plate method; format: functional
[20] = biological target: T3, Muscarinic acetylcholine receptor M4 (Homo sapiens) (UniProt P08173); assay: Antagonist potency at muscarinic receptor M4 in rabbit vas deferens; format: functional, tissue-based; conditions: Oryctolagus cuniculus, target entry is the homologue from another species
T3 sequence (whole entry): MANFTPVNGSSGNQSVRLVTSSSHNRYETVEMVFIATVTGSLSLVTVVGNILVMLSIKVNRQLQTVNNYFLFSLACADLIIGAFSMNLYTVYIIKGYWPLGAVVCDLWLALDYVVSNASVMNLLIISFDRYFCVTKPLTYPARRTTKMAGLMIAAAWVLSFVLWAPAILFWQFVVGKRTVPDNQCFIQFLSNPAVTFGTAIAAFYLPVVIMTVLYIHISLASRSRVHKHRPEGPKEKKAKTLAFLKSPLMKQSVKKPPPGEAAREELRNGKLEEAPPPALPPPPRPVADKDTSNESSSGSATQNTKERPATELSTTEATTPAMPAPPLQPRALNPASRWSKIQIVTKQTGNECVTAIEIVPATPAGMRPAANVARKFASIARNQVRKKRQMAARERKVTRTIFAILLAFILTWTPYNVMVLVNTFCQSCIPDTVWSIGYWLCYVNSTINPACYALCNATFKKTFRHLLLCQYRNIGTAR

[21] = tested on: Mus musculus; assay: Antinociceptive activity in mouse assessed as licking latency at 0.01 ug, icv after 15 mins by hot plate method; format: functional
[22] = biological target: T4, Muscarinic acetylcholine receptor M4 (Homo sapiens, UniProt P08173); assay: Displacement of [3H] N-methyl-scopolamine chloride from human muscarinic receptor M4 expressed in CHO cells; format: cell-based
T4 sequence (P08173 whole entry): T3 sequence (whole entry)

[23] = tested on: Mus musculus; assay: Antinociceptive activity in mouse assessed as licking latency at 1.0 ug, icv after 30 mins by hot plate method; format: functional
[24] = tested on: Mus musculus; assay: Antinociceptive activity in mouse assessed as licking latency at 1.0 ug, icv after 45 mins by hot plate method; format: functional
[25] = biological target: Muscarinic acetylcholine receptor M3 (Cavia porcellus) (UniProt Q8VH26); assay: Antagonist potency at muscarinic receptor M3 in guinea pig ileum; format: functional, tissue-based
[26] = biological target: Muscarinic acetylcholine receptor M3 (Homo sapiens, UniProt P20309); assay: Displacement of [3H] N-methyl-scopolamine chloride from human muscarinic receptor M3 expressed in CHO cells; format: cell-based
[27] = tested on: Mus musculus; assay: Antinociceptive activity in mouse assessed as licking latency at 10 ug, icv after 45 mins by hot plate method; format: functional
[28] = tested on: Mus musculus; assay: Antinociceptive activity in mouse assessed as licking latency at 0.03 ug, icv after 60 mins by hot plate method; format: functional
[29] = tested on: Mus musculus; assay: Antinociceptive activity in mouse assessed as licking latency at 1.0 ug, icv after 60 mins by hot plate method; format: functional

Muscarinic acetylcholine receptor M3, sequence (P20309 whole entry): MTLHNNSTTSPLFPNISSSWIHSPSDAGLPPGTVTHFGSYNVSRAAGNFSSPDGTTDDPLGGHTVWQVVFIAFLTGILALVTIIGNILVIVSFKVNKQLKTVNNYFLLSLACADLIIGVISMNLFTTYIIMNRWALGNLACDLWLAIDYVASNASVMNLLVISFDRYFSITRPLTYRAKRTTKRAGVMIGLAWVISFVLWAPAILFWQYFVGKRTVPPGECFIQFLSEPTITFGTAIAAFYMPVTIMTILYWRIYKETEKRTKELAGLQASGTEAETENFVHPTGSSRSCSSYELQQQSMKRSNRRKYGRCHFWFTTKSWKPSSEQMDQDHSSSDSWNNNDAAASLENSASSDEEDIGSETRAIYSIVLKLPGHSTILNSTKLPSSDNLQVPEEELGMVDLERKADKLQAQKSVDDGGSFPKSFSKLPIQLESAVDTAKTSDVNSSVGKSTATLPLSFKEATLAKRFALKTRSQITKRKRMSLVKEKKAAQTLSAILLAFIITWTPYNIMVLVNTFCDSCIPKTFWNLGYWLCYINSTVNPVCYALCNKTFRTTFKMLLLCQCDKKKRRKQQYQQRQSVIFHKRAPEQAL
Cholinesterase, sequence (P06276 whole entry): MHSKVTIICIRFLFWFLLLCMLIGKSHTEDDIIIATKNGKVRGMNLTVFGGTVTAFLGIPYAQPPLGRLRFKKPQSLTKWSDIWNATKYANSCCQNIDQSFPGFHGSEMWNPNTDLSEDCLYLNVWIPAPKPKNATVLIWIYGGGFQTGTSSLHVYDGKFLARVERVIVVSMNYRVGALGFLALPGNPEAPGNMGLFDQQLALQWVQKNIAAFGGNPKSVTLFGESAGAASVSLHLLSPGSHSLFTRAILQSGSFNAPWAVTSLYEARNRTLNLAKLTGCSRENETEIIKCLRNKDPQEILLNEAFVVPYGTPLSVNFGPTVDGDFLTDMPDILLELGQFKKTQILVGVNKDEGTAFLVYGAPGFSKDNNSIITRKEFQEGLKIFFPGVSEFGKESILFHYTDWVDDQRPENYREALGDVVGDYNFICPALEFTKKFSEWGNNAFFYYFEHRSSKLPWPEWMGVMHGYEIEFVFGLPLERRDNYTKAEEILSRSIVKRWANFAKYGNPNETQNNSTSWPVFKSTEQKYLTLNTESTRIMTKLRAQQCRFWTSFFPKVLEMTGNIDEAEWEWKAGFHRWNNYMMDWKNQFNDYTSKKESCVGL
Acetylcholinesterase, sequence (P22303 whole entry): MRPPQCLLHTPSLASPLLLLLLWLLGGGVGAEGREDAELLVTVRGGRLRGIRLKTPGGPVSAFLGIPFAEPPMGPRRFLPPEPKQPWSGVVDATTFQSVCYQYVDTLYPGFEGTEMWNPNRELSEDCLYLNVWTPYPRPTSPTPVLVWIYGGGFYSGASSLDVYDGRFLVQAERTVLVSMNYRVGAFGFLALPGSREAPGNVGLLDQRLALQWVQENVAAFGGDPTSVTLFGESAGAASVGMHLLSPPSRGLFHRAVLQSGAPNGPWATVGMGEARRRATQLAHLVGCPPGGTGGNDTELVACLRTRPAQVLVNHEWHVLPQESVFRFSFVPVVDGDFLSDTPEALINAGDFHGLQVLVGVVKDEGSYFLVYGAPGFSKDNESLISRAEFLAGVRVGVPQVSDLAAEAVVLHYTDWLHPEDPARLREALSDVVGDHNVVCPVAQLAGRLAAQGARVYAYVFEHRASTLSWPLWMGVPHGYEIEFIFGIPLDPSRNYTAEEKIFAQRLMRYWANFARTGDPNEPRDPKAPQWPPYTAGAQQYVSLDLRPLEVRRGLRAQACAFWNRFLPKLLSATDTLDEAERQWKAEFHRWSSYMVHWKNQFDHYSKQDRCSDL
Muscarinic acetylcholine receptor M3 (Cavia porcellus), sequence (Q8VH26 1-587): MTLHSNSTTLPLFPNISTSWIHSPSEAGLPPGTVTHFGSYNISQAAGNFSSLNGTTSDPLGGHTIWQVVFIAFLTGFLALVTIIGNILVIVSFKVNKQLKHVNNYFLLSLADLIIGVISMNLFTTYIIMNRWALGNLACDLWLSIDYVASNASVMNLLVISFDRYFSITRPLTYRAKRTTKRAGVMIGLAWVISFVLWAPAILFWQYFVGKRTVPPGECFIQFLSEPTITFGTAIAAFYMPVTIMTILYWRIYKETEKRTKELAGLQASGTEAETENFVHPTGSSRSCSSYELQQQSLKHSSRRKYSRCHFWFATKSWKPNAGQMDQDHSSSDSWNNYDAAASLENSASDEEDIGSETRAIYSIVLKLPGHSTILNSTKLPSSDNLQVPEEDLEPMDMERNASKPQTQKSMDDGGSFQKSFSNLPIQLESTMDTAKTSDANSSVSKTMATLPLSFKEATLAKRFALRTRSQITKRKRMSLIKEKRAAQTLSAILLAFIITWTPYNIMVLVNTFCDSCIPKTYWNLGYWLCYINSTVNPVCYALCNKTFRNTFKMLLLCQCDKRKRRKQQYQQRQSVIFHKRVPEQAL

Compound: COc1ccccc1CNCCCCCCN1CCC(CCC2CCN(CCCCCCNCc3ccccc3OC)CC2)CC1
- Time [1]: 14.2 s
- Time [2]: 15.6 s
- Time [3]: 18.6 s
- Time [4]: 19.3 s
- Time [5]: 25 s
- IC50 [6]: 10500 nM
- Ki [7]: 20 nM
- Time [8]: 15.7 s
- pKb [9]: 7.98
- Time [10]: 18.6 s
- Time [11]: 18.6 s
- Time [12]: 18.3 s
- Time [13]: 22.1 s
- IC50 [14]: 1290 nM
- Time [15]: 18.3 s
- Time [16]: 19.4 s
- Activity [17]: Active
- Time [18]: 13.3 s
- Time [19]: 24.7 s
- pKb [20]: 5.56
- Time [21]: 15.9 s
- Ki [22]: 40.7 nM
- Time [23]: 21.3 s
- Time [24]: 18.5 s
- pKb [25]: 6.58
- Ki [26]: 214 nM
- Time [27]: 17.7 s
- Time [28]: 16.1 s
- Time [29]: 19.5 s
